Results: paper PMC9950205, “Efficacy, safety, and pharmacokinetics of teduglutide in adult Japanese patients with short bowel syndrome and intestinal failure: two phase III studies with an extension” (Surgery Today, 2022)

Columns and labels:
Type in all cases: in vivo, human
[1] = system: adult Japanese patients with SBS-IF; experiment: Plasma citrulline, biomarker of intestinal epithelial mass, change from baseline
Method: Concentrations of plasma citrulline, a biomarker of intestinal epithelial mass, were measured at baseline; weeks 4, 8, 16, and 24; and then every 2 months thereafter up to 30 months of treatment. Patients who continued into SHP633-307 from SHP633-306 had measurements taken at month 12, while those continuing from TED-C14-004 had measurements taken every 3 months.
(§1) Efficacy endpoints were defined in an analogous manner to previous pivotal studies. These included a clinically meaningful reduction in weekly PS volume of ≥ 20% [17] measured between baseline and both 20 and 24 weeks for TED-C14-004 and SHP633-306, and a continued reduction in weekly PS volume of ≥ 20% from the baseline in core studies at each scheduled visit until the last visit before the interim data cut-off of SHP633-307. Other efficacy endpoints included changes in absolute and percentage weekly PS volumes from the baseline in the core studies at each study visit, the number of days per week of PS, the number of patients who achieved enteral autonomy at the end of treatment or the data cut-off, and the changes in plasma citrulline levels from baseline in the core studies. The primary efficacy data were derived from patient diaries and compared against investigator-prescribed data captured in electronic case report forms.

[2] = system: adult Japanese patients with SBS-IF; experiment: Parenteral support (PS) requirements in phase III studies TED-C14-004, SHP633-306 and extension SHP633-307, teduglutide 0.05 mg/kg SC once daily; settings: for Patients with reduction in weekly PS volume of ≥ 20% from baseline at both weeks 20 and 24: 0.05 mg/kg SC once daily; for Patients whose PS volume decreased by ≥ 20%: 0.05 mg/kg/day
Method: As in the previous STEPS-1 study, patients participating in the core studies (TED-C14-004 and SHP633-306) underwent an optimization (2–8 weeks) and stabilization (4–8 weeks) period before initiation of treatment with teduglutide, during which PS was adjusted with the goal of achieving a stable target urine output of 1.0–2.0 L/day. All participating patients received teduglutide 0.05 mg/kg SC once daily throughout these three studies. PS was adjusted according to an algorithm based on the change from baseline in urine output and other assessments of fluid balance and nutrition status; the PS adjustment algorithm required reductions in PS if the urine output rose more than 10% above baseline. Patients had study visits at weeks 2 and 4, after which visits were held monthly during TED-C14-004 and SHP633-306. During SHP633-307, patients from SHP633-306 had monthly study visits throughout the 24 total months of treatment and then at 3-month intervals thereafter, and patients from TED-C14-004 had visits at 3-month intervals. The end-of-study assessments for SHP633-306 and TED-C14-004 were combined with the first visit of SHP633-307. SHP633-307 is ending soon with the approval of teduglutide in Japan.
as §1
Efficacy was evaluated between baseline and 24 weeks in TED-C14-004 and SHP633-306 and between baseline and 30 months in […]. Among patients who entered SHP633-307, the total follow-up periods, including the prior studies, were up to 14–57 months of total teduglutide exposure for patients from SHP633-306 and TED-C14-004.
Post hoc analyses of PS volume reductions in patients with Crohn’s disease, with and without a stoma, were performed for TED-C14-004.

[3] = system: adult Japanese patients with SBS-IF; experiment: Anti-teduglutide antibodies in blood samples
Method: In TED-C14-004 and SHP633-306, blood samples for PK evaluations were taken pre-dose and at 0.25, 0.5, 1, 2, 3, 4, 6, 8, 10, and 12 h post-dose during the first 12 weeks of treatment with teduglutide. In SHP633-307, patients continuing from study TED-C14-004 had blood samples for PK evaluations taken pre-dose and at […], and 1, 2, 3, 4, 6, 8, 10, and 12 h post-dose at the first extension study visit. Patients continuing from SHP633-306 had blood samples taken pre-dose and 1 and 2 h post-dose at the first extension study visit. Blood samples to test for the presence of antibodies to teduglutide were taken at baseline and weeks 12 and 24 in SHP633-306; ≥ 14 h after dosing at baseline and weeks 12 and 24, and then every 6 months thereafter in TED-C14-004; and every 3 months in SHP633-307.
Safety analyses included the monitoring of adverse events (AEs), body weight, BMI, vital signs, 12-lead electrocardiogram (ECG), serum biochemistry, hematology, and presence of antibodies to teduglutide. AEs were coded using the Medical Dictionary for Regulatory Activities versions 17.1 (TED-C14-004) and 21.0 (SHP633-306 and SHP633-307). Specifically, AEs were treatment-emergent AEs (TEAEs), defined as any unfavorable and unintended sign (including any abnormal laboratory finding), symptom, or disease that occurred during treatment with teduglutide, whether or not the event was considered to be related to the study drug by the clinical study investigator. AEs were also categorized as mild, moderate, or severe. […] AEs were considered related to treatment with teduglutide, or its administration, based on the investigator's medical judgment.

[4] = 24 weeks, SHP633-306, n = 6, mean ± SD
[5] = 24 weeks, TED-C14-004, n = 9, mean ± SD
[6] = 30 months, TED-C14-004, n = 7, mean ± SD
[7] = interim cut-off of the extension study, patients from SHP633-306, mean ± SD
[8] = interim data cut-off of SHP633-307, patients from TED-C14-004, up to 57 months, n = 7, mean ± SD
[9] = 12 months, patients from SHP633-306, n = 4, mean ± SD
[10] = 39 months, patients from TED-C14-004 in extension study, n = 5, mean ± SD
[11] = interim data cut-off, patients from TED-C14-004 in extension study, n = 3, mean ± SD
[12] = last visit before interim data cut-off of SHP633-307, patients from SHP633-306, n = 2, mean ± SD
[13] = post hoc, TED-C14-004, patients with Crohn’s disease, 24 weeks, n = 7, mean ± SD
[14] = post hoc, TED-C14-004, patients with Crohn’s disease, 30 months, n = 6, mean ± SD
[15] = post hoc, TED-C14-004, patients with a stoma, 24 weeks, n = 6, mean ± SD
[16] = post hoc, TED-C14-004, patients with a stoma, 30 months, n = 5, mean ± SD
[17] = post hoc, TED-C14-004, patients without a stoma, 24 weeks, n = 3, mean ± SD
[18] = post hoc, TED-C14-004, patients without a stoma, 30 months, n = 2, mean ± SD

CC[C@H](C)[C@H](NC(=O)[C@H](Cc1ccccc1)NC(=O)[C@H](CC(=O)O)NC(=O)[C@H](CCCNC(=N)N)NC(=O)[C@H](C)NC(=O)[C@H](C)NC(=O)[C@H](CC(C)C)NC(=O)[C@H](CC(N)=O)NC(=O)[C@H](CC(=O)O)NC(=O)[C@H](CC(C)C)NC(=O)[C@@H](NC(=O)[C@@H](NC(=O)[C@H](CC(N)=O)NC(=O)[C@H](CCSC)NC(=O)[C@H](CCC(=O)O)NC(=O)[C@H](CC(=O)O)NC(=O)[C@H](CO)NC(=O)[C@H](Cc1ccccc1)NC(=O)[C@H](CO)NC(=O)CNC(=O)[C@H](CC(=O)O)NC(=O)CNC(=O)[C@@H](N)Cc1c[nH]cn1)[C@@H](C)O)[C@@H](C)CC)C(=O)N[C@@H](CC(N)=O)C(=O)N[C@@H](Cc1c[nH]c2ccccc12)C(=O)N[C@@H](CC(C)C)C(=O)N[C@H](C(=O)N[C@@H](CCC(N)=O)C(=O)N[C@H](C(=O)N[C@@H](CCCCN)C(=O)N[C@H](C(=O)N[C@H](C(=O)N[C@@H](CC(=O)O)C(=O)O)[C@@H](C)O)[C@@H](C)CC)[C@@H](C)O)[C@@H](C)CC [teduglutide]
Plasma citrulline increase from baseline [1, 4]: 14.3 ± 10.9 µM
Plasma citrulline percent increase from baseline [1, 4]: 106.3% ± 114.9%
Plasma citrulline increase from baseline [1, 5]: 15.0 ± 17.4 µM
Plasma citrulline percent increase from baseline [1, 5]: 86.9% ± 112.3%
Plasma citrulline increase from baseline [1, 6]: 28.3 ± 24.1 µM
Plasma citrulline percent increase from baseline [1, 6]: 135.0% ± 84.2%
Plasma citrulline increase from baseline [1, 7]: 13.0 ± 5.6 µM
Plasma citrulline percent increase from baseline [1, 7]: 79.1% ± 33.5%
Plasma citrulline increase from baseline [1, 8]: 19.2 ± 18.9 µM
Plasma citrulline percent increase from baseline [1, 8]: 103.6% ± 88.7%
PS volume decrease from baseline [2, 9]: 7.3 ± 6.5 L/week
PS volume percent change from baseline [2, 9]: −51.6% ± 28.5%
PS volume decrease from baseline [2, 4]: 3.3 ± 3.6 L/week
PS volume percent change from baseline [2, 4]: −25.6% ± 25.5%
Reduction in PS infusion frequency from baseline [2, 4]: 0.5 ± 1.23 days/week
PS volume decrease from baseline [2, 5]: 4.9 ± 4.8 L/week
PS volume percent change from baseline [2, 5]: −30.1% ± 25.9%
Reduction in PS infusion frequency from baseline [2, 5]: 1.0 ± 1.8 days/week
PS volume decrease from baseline [2, 6]: 8.3 ± 5.9 L/week
PS volume percent change from baseline [2, 6]: −53.5% ± 33.9%
Reduction in PS infusion frequency from baseline [2, 6]: 2.1 ± 3.3 days/week
PS volume decrease from baseline [2, 10]: 7.9 ± 4.5 L/week
PS volume percent change from baseline [2, 10]: −63.6% ± 33.9%
Patients with reduction in weekly PS volume of ≥ 20% from baseline at both weeks 20 and 24 ([2]; SHP633-306, 4 of 7 patients): 57.1%
Patients with reduction in weekly PS volume of ≥ 20% from baseline at both weeks 20 and 24 ([2]; TED-C14-004, 5 of 11 patients): 45.5%
Patients with reduction in weekly PS volume of ≥ 20% from baseline at both weeks 20 and 24 ([2]; TED-C14-004 and SHP633-306 together, 9 of 18 patients): 50%
Patients with ≥ 20% reduction in weekly PS volume from baseline ([2]; after 30 months, TED-C14-004, 6 of 7 patients): 85.7%
Patients whose PS volume decreased by ≥ 20% ([2]; at 24 weeks, TED-C14-004 and SHP633-306): 9/18
PS volume percent change from baseline ([2]; at data cut-off in SHP633-307, all patients, mean ± SD): −57.08 ± 28.49%
Patients who achieved enteral autonomy ([2]; by 30 months, TED-C14-004, 2 of 8 patients): 25%
Patients whose PS volume decreased by ≥ 20% ([2]; by data cut-off in SHP633-307): all 11 patients
Patients with ≥ 20% reduction in weekly PS volume ([2]; by the end of TED-C14-004, maintained to last visit before data cut-off in the extension study): all patients
Patients who maintained ≥ 20% reduction in PS volume from baseline at each scheduled visit to the last visit before data cut-off ([2]; extension study SHP633-307, patients from SHP633-306): All patients
Patients who achieved enteral autonomy ([2]; first 24 weeks, SHP633-306 and TED-C14-004): No patients
Reduction in PS infusion frequency from baseline ([2]; interim data cut-off of extension study, patients from SHP633-306, mean ± SD): 1.9 ± 2.3 days/week
PS volume decrease from baseline [2, 11]: 11.5 ± 3.7 L/week
PS volume percent change from baseline [2, 11]: −63.57% ± 32.0%
PS volume decrease from baseline [2, 12]: 11.7 ± 8.6 L/week
PS volume percent change from baseline [2, 12]: −76.4% ± 25.9%
PS volume decrease from baseline [2, 13]: 5.3 ± 5.4 L/week
PS volume percent change from baseline [2, 13]: −31.9% ± 28.9%
PS volume decrease from baseline [2, 14]: 9.3 ± 5.8 L/week
PS volume percent change from baseline [2, 14]: −59.4% ± 32.9%
PS volume decrease from baseline [2, 15]: 6.1 ± 5.5 L/week
PS volume percent change from baseline [2, 15]: −35.3% ± 30.1%
PS volume decrease from baseline [2, 16]: 10.7 ± 5.4 L/week
PS volume percent change from baseline [2, 16]: −65.2% ± 33.2%
PS volume decrease from baseline [2, 17]: 2.7 ± 1.8 L/week
PS volume percent change from baseline [2, 17]: −19.6% ± 13.1%
PS volume decrease from baseline [2, 18]: 2.5 ± 0.2 L/week
PS volume percent change from baseline [2, 18]: −24.3% ± 8.7%
Maintenance of enteral autonomy ([2]; the 2 patients of TED-C14-004 with enteral autonomy, throughout SHP633-307 until interim data cut-off): remained off PS
Reduction in PS infusion frequency from baseline ([2]; up to the end of the extension study, patients from TED-C14-004, mean ± SD): 2.2 ± 3.3 days/week
Patients positive for anti-teduglutide antibodies ([3]; 24 weeks, 5 out of 14 patients (n = 4 TED-C14-004; n = 1 SHP633-306)): 35.7%
Patients with low titers of anti-teduglutide antibodies as well as neutralizing antibodies ([3]; 39 months, patients from TED-C14-004 in SHP633-307, two patients): 40.0%
Anti-teduglutide antibodies ([3]; 51 or 54 months, n = 7): No anti-teduglutide antibodies were detected
Patients positive at 24 weeks who also tested positive up to 22 months ([3]; TED-C14-004): Three of the 4 patients
Association between anti-teduglutide antibodies and a lack of efficacy ([3]; all studies): no association
Patients positive for antibodies to teduglutide ([3]; month 12, SHP633-307 patients from SHP633-306, 2 out of 4): 50.0%
Association of anti-teduglutide antibodies with AEs of hypersensitivity or teduglutide-related hypersensitivity reaction ([3]; patients in whom antibodies were detected): no association
